Results taken from paper PMC7542351, “Construction of a new T7 promoter compatible Escherichia coli Nissle 1917 strain for recombinant production of heme-dependent proteins” (Microbial Cell Factories, 2020).

Target: T1, Cph1 (Synechocystis sp. PCC 6803, UniProt Q55168)
T1 construct: His6 tag; ~80 kDa; pET-cph1; co-produced with HO1 and PcyA in E. coli; cell-free lysate
Assay: red/far-red induced difference spectroscopy of holo-phytochrome
Format: biochemical
Conditions: cell-free lysate; pH 8.0, 25 °C; 630 nm / 730 nm light; PCB made in vivo by co-expressed HO1 and PcyA, and 40 µM PCB added; covalent

T1 sequence (Q55168 whole entry): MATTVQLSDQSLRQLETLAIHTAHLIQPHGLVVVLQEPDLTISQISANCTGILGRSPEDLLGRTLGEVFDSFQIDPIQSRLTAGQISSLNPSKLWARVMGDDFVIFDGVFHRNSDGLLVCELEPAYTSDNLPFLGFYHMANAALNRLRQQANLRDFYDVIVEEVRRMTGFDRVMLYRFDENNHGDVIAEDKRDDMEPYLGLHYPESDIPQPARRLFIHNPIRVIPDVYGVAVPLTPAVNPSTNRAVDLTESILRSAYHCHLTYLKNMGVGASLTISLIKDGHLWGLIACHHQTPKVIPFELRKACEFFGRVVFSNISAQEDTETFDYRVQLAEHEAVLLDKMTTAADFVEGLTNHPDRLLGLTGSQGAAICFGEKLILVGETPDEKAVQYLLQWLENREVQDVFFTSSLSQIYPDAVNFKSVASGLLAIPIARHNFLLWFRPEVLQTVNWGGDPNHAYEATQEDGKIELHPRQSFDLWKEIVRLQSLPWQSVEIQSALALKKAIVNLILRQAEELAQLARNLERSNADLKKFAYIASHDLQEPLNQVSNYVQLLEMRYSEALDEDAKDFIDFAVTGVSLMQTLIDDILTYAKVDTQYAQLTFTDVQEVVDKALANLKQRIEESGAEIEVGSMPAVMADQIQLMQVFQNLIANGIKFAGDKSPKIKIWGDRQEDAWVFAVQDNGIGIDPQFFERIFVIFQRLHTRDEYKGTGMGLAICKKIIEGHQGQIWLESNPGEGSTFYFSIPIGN

SMILES: CC=C1C(=Cc2[nH]c(C=C3N=C(C=C4NC(=O)C(CC)=C4C)C(C)=C3CCC(=O)O)c(CCC(=O)O)c2C)NC(=O)C1C (stereo not shown) [phycocyanobilin]
- red/far-red induced difference spectroscopy of holo-phytochrome: Comparison of difference spectra before and after incubation with PCB indicated a higher saturation
